From patent US11319551B2, “Methods and compositions for PPO herbicide tolerance in plants” (Monsanto Technology LLC, priority 2015, dated 2022) come the findings set out here.

In experiment [1] the target is soybean PPO. As to the kind of experiment: PPO enzyme assay, plant plastid extract. In kind it is biochemical, Glycine max. As to conditions: 3 μM protogen, 30° C., read-out: S-3100 IC50. The method, then: (§1) Plant plastid extract was produced used etioplasts and chloroplasts that were prepared from etiolated cotyledons (soybean, Glycine max), etiolated leaves/coleoptiles (corn, Zea mays) and unfolded apical leaves (A. tuberculatus) generally by the procedure described by Grossmann (2010). Soybean (A3555) and corn (LH244) seeds were placed between two sheets of moist germination paper (Anchor Paper Company, Saint Paul, Minn.) in a beaker of water in continuous darkness for eight to ten days. A. tuberculatus plants were grown for 30 days in the greenhouse. Tissue was collected, placed between moist sheets of paper towels and ground to fine powder with a mortar and pestle in liquid nitrogen. Homogenization buffer (50 mM Tris-HCl, pH 7.4, 500 mM sucrose, 1 mM EDTA, 1 mM magnesium chloride, and 2 g/liter bovine serum albumin) was added to the frozen powder at 4:1 (ml homogenization buffer to g fresh weight tissue), mixed vigorously and filtered through four layers of pre-moistened Miracloth. The filtrate was centrifuged at 9299 g for five minutes. The pellet was resuspended in homogenization buffer and centrifuged at 150 g for two minutes. The supernatant solution was centrifuged at 4000 g for fifteen minutes. All centrifugation steps were carried out a 4° C. […]

For experiment [2], the target named is corn PPO. The experiment is described as follows: PPO enzyme assay, plant plastid extract. The format is biochemical, Zea mays. As to conditions: 3 μM protogen, 30° C., read-out: S-3100 IC50. The protocol: as §1
Experiment [3] has as its target E. coli HemG (Escherichia coli, UniProt P0ACB4). As to the kind of experiment: PPO enzyme assay, bacterial extract.
Description: (§2) This assay used recombinant HemY PPO proteins with plant plastid extract and PPO substrate to identify protoporphyrinogen oxidases that had activity in the presence of a PPO herbicide.
(§3) Recombinant PPO enzymes were expressed in E. coli HemG knockout cell line and extracted for the enzyme assay. Bacterial cells from an overnight culture were used to inoculate 20 ml of fresh media. These cultures were allowed to grow for approximately 48 hrs at 20° C. to a dense culture. Bacterial cells were collected by centrifugation and the cell pellets stored at −80° C. until enzyme assays were performed. Frozen bacterial pellets were resuspended in extraction buffer (50 mM Tris-HCl, pH 7.6, 1 mM EDTA & 1 mM MgCl2) and sonicated (Sonics VibraCell™) for 30 seconds in an ice bath with a one-minute rest period between cycles. For E. coli transformed with a construct encoding E. coli HemG (SEQ ID NO: 76) the broken cells were centrifuged at 200 g for 2 minutes at 4° C. and the supernatant solution was used for PPO enzyme assays after dilution with extraction buffer. […]
(§4) A PPO enzyme assay was conducted to measure PPO activity using the plant plastid extract and bacterial extract preparations with the PPO substrate. PPO activity was measured generally as described by Grossmann (2010).
The test system of experiment [4] is R2N30. As to the kind of experiment: PPO enzyme assay, bacterial extract.
Description: as §2, §3, §4
Experiment [5] concerns R2N40. The experiment is described as follows: PPO enzyme assay, bacterial extract.
Description: as §2, §3, §4
[6] abbreviates: read-out: S-3100 IC50, bacterial extract, 3 μM protogen, 37° C.

Sequence of E. coli HemG (P0ACB4 whole entry): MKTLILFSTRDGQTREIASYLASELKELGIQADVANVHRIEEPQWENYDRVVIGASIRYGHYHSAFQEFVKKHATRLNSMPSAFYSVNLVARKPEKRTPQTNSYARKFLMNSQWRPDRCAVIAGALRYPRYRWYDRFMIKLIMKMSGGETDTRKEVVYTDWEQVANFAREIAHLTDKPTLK

One may read the IC50 as the concentration that inhibits the measured activity by half. For the compound `CCOC(=O)COc1ncccc1Oc1cc(-n2c(=O)cc(C(F)(F)F)n(C)c2=O)c(F)cc1Cl` [S-3100], the IC50 was 4 nM in experiment [1]; 3 nM in experiment [2]; above 100000 nM in experiment [3]; 20 nM in experiment [4] (setting [6]); 40 nM in experiment [5] (setting [6]). Further, the “less sensitive to the herbicide than the plant PPO enzymes” value in experiment [4] (R2N30 versus plant PPO enzymes) and in experiment [5] (R2N40 versus plant PPO enzymes) was 10 fold each time.
